“Also recorded” adds a separate entry of the source. Like-named read-outs stand apart in the source and are kept apart here.
Tests used:
[1] = target: Jack bean (Canavalia ensiformis) urease (Canavalia ensiformis (Jack bean) (Dolichos ensiformis), UniProt P07374); assay: biochemical; assay type: biochemical; settings: for urease inhibitory activity compared with standard thiourea: in words
Procedure: The Schiff bases of thiazoles were evaluated for their urease inhibitory potential by using the following protocol:
Finally the results were processed by software SoftMax Pro (Molecular Devices, CA, USA), MS-Excel and Ez-fit. The Percent inhibition was calculated from the formula given below: 100−(OD of test compound/OD of control)×100
The IC50 values were then calculated using the EZ-Fit Enzyme Kinetics program (Perrella Scientific Inc., Amherst, U.S.A.).

jack bean urease = jack bean urease (Canavalia ensiformis (Jack bean) (Dolichos ensiformis), UniProt P07374); assay: biochemical; assay type: biochemical; parameters: Vmax / Vmaxapp: unit not given here; settings: for Type of Inhibition: from Lineweaver-Burk plot; for Kmapp / Km: substrate urea; for Kmapp / Vmaxapp: in presence of inhibitor; for Km / Vmax: without inhibitor
Procedure: The Lineweaver-Burk plot was used to determine the type of inhibition, while Dixon plot and secondary replete were used for the determination of dissociation constants (Ki). The Ki, Km, and Vmax were determined by non-linear regression equation. The Ki value was determined from lineweaver-Burk plot. For the calculation of Ki values, initially the 1/Vmaxapp values were determine on y-axis of lineweaver-Burk plot at each junction point of lines of every inhibitor concentration. Secondly the slope of the inhibitor at concentration of each line were determined on Lineweaver-Burk plot and re-plotted against the inhibitor concentrations.
Graphs were plotted using GraFit program. Values of the correlation coefficients, slopes, intercepts, and their standard errors were obtained by the linear regression analysis using the same program. Each point in the constructed graphs represents the mean of the three experiments.
In mixed-type of inhibition, both Km and Vmax are affected.
Three different methods were applied to determine the type of inhibition and Ki values for these inhibitors. Firstly by using Lineweaver-Burk plots the reciprocal of the rate of the reaction were plotted against the reciprocal of substrate concentration to monitor the effect of inhibitor on both Km and Vmax. Secondly the secondary replots of Lineweaver-Burk plots were plotted to determine the Ki value. The Ki values were calculated by plotting the slope of each line in the Lineweaver-Burk plots against the different concentration of inhibitors.

[2] = Jack bean urease, pH 6.8, 100 mM urea, 30° C., 15 min, read-out: IC50 ± SEM
[3] = Table 2, jack bean urease, read-out: IC50
[4] = mean of triplicate, read-out: Ki ± S.E.M.

For “N-[2-Chloro- phenyl)methylidene]- N-(4-phenyl-1,3- thiazol-2-yl) amine [Compound 20]”, the IC50 [1, 2] was 13.03 ± 0.02 µM.

For “N-[4-Methoxyphenyl) methylidene]-N-(4- phenyl-1,3-thiazol-2- yl)amine [Compound 13]”, the “urease inhibitory activity compared with standard thiourea” value [1] was “significant urease inhibitory activity, comparable to standard”.

Compound “N-[2-Fluorophenyl) methylidene]-N- (4-phenyl-1,3- thiazol-2-yl)amine [Compound 22]” has an IC50 [1, 2] of 17.93 ± 0.07 µM.

In the case of “N-[4-Nitrophenyl)methyl- idene]-N-(4-phenyl-1,3- thiazol-2-yl)amine [Compound 11]”, the IC50 [1, 2] is reported as 32.5 ± 0.02 µM and the “urease inhibitory activity compared with standard thiourea” value [1] is reported as “significant urease inhibitory activity, comparable to standard”.

`Cc1ccc(C=Nc2nc(-c3ccccc3)cs2)o1` [Compound 10, N-[(5-Methyl-2-furyl)methylidene]-N-(4-phenyl-1,3-thiazol-2-yl)amine] was tested, and the IC50 [1, 2] was 17.83 ± 0.07 µM, the IC50 [1, 3] was 17.8 µM and the Ki (jack bean urease) was 14.82 ± 0.0109 µM.

Compound `Oc1ccc(C=Nc2nc(-c3ccccc3)cs2)cc1` [Compound 12, 4-{[(4-Phenyl-1,3-thiazol-2-yl)imino]methyl}phenol] has an IC50 ([1]; IC50 ± SEM) of 20.16 ± 0.07 µM.

`Oc1ccc(Cl)cc1C=Nc1nc(-c2ccccc2)cs1` [Compound 8, 4-Chloro-2-{[(4-phenyl-1,3-thiazol-2-yl)imino]methyl} phenol] was tested, and the IC50 [1, 2] was 8.13 ± 0.02 µM, the IC50 [1, 3] was 8.1 µM and the Ki (jack bean urease) was 7.89 ± 0.0142 µM.

Work on “N-[4-(Dimethylamino) phenyl]methylidene}-N- (4-phenyl-1,3-thiazol-2- yl)amine [Compound 14]” yielded an IC50 [1, 2] of 20.36 ± 0.11 µM.

`Oc1ccccc1C=Nc1nc(-c2ccccc2)cs1` [Compound 16, 2-{[(4-Phenyl-1,3-thiazol-2-yl)imino]methyl} phenol] showed an IC50 [1, 2] of 12.4 ± 0.14 µM.

`NC(N)=S` [Thiourea, reference compound] was tested, and the “Type of Inhibition” value (jack bean urease) was “Competitive inhibition”, the Ki (jack bean urease; [4]) was 20.01 ± 0.02 µM and the Kmapp (jack bean urease) was 7.38 mM. It also gave a Km (jack bean urease) of 2250 µM.

“N-[Phenylmethyl- idene]-N-(4-phenyl- 1,3-thiazol-2-yl) amine [Compound 19]” was tested, and the IC50 [1, 2] was 16.76 ± 0.054 µM.

In the case of `C(=Nc1nc(-c2ccccc2)cs1)c1c[nH]c2ccccc12` [Compound 2, N-[1H-indol-3-yl-methylidene]-N-(4-phenyl-1,3-thiazol-2-yl)amine], the IC50 [1, 2] is reported as 8.56 ± 0.027 µM, the IC50 [1, 3] is reported as 8.5 µM and the Ki (jack bean urease) is reported as 9.6 ± 0.0024 µM.

“N-[4-Isopropylphenyl) methylidene]-N-(4- phenyl-1,3-thiazol-2- yl)amine [Compound 9]” was tested, and the IC50 [1, 2] was 14.5 ± 0.16 µM, the IC50 [1, 3] was 14.5 µM and the “Type of Inhibition” value (jack bean urease) was “mixed-type; also recorded: Mixed inhibition”. It also gave a Vmaxapp (jack bean urease) of 8.72, a Ki (jack bean urease; [4]) of 12.39 ± 0.0168 µM and a Kmapp (jack bean urease) of 3.22 mM. The Km (jack bean urease) was 2200 µM and the Vmax (jack bean urease) was 19.

For “N-[2,6-Dichloro- phenyl)methylidene]-N-(4- phenyl-1,3-thiazol- 2-yl)amine [Compound 25]”, the IC50 [1, 2] was 22.33 ± 0.11 µM and the “urease inhibitory activity compared with standard thiourea” value [1] was “significant urease inhibitory activity, comparable to standard”.

Work on “N-[4-Chlorophenyl) methylidene]-N-(4-phenyl- 1,3-thiazol-2-yl)amine [Compound 26]” yielded an IC50 [1, 2] of 19 ± 0.04 µM.

“N-(4-Phenyl-1,3- thiazol-2-yl)-N-[4- pyridinylmethyl- idene]amine [Compound 5]” was tested, and the IC50 ([1]; read-out: IC50) was 7.6 µM, the IC50 ([1]; read-out: IC50 ± SEM) was 7.6 ± 0.08 µM and the “Type of Inhibition” value (jack bean urease) was “Competitive inhibition”. The Vmaxapp (jack bean urease) was 23.5, the Ki (jack bean urease; [4]) was 13.6 ± 0.0123 µM and the Kmapp (jack bean urease) was 5.09 mM. It also gave a Km (jack bean urease) of 2250 µM and a Vmax (jack bean urease) of 21.64.

Compound `Oc1cccc(C=Nc2nc(-c3ccccc3)cs2)c1O` [Compound 23, 3-{[(4-Phenyl-1,3-thiazol-2-yl)imino]methyl}-1,2-benzenediol] has an IC50 ([1]; IC50 ± SEM) of 19.63 ± 0.19 µM.

In the case of “N-[4-(Methylsulfanyl) phenyl]methylidene}-N- (4-phenyl-1,3-thiazol-2- yl)amine [Compound 18]”, the IC50 [1, 2] is reported as 6.96 ± 0.054 µM.

For `C(=Nc1nc(-c2ccccc2)cs1)c1cccc2ccccc12` [Compound 21, N-[1-Naphthyl-methylidene]-N-(4-phenyl-1,3-thiazol-2-yl)amine], the IC50 [1, 2] was 23.06 ± 0.11 µM.

With “N-[2-Naphthylmethyl- idene]-N-(4-phenyl- 1,3-thiazol-2-yl)amine [Compound 7]” the IC50 [1, 2] was 9.33 ± 0.02 µM, the IC50 [1, 3] was 9.33 µM and the “Type of Inhibition” value (jack bean urease) was “Competitive inhibition”. The Vmaxapp (jack bean urease) was 29, the Ki (jack bean urease; [4]) was 11.89 ± 0.004 µM and the Kmapp (jack bean urease) was 6.28 mM. The Km (jack bean urease) was 2250 µM and the Vmax (jack bean urease) was 28.8.

With “N-[4-Ethoxyphenyl)methyl- idene]-N-(4-phenyl-1,3- thiazol-2-yl)amine [Compound 4]” the IC50 [1, 3] was 11.2 µM, the “Type of Inhibition” value (jack bean urease) was “mixed-type; also recorded: Mixed inhibition” and the Vmaxapp (jack bean urease) was 12.85. For the same compound, the Ki (jack bean urease; [4]) was 9.23 ± 0.018 µM, the Kmapp (jack bean urease) was 2.56 mM and the Km (jack bean urease) was 2250 µM. It also gave a Vmax (jack bean urease) of 23.47.

`CCOc1cccc(C=Nc2nc(-c3ccccc3)cs2)c1O` [Compound 3, 2-Ethoxy-6-{[(4-phenyl-1,3-thiazol-2-yl)imino]methyl}phenol] was tested, and the IC50 ([1]; IC50) was 7.9 µM, the IC50 ([1]; IC50 ± SEM) was 7.9 ± 0.08 µM and the Ki (jack bean urease) was 9.7 ± 0.007 µM.

For `COc1cccc(C=Nc2nc(-c3ccccc3)cs2)c1O` [Compound 6, 2-Methoxy-6-{[(4-phenyl-1,3-thiazol-2-yl)imino]methyl} phenol], the IC50 ([1]; IC50) was 8.8 µM and the Ki (jack bean urease) was 8.22 ± 0.0233 µM.

Reference: US9447057B2, “Schiff bases of thiazoles: a new class of ureases inhibitors” (priority 2014, dated 2016)
